Laboratory results from US20230085263A1, “TASTEFUL NATURAL SWEETENER AND FLAVOR” (EPC Natural Products Co., Ltd., priority 2018, published 2023).
“Also recorded” adds a separate entry of the source.

Key:
[1] = DPPH radical-scavenging activity (DPPH test for anti-oxidant potential); type: physicochemical; conditions: combinations of amino acids and Reb-A, 100° C., 0, 2.5 or 5.0 hours, diluted 1:10
Protocol: Assay to Rest DPPH Radical-Scavenging Activity
1 mg 1,1-Diphenyl-2-picrylhydrazyl radical (DPPH)/ml ethanol, dilution to assay concentration were prepared in ethanol (40 μg/mL); Calibration samples were prepared with Ascorbic acid in a concentration of 0-10 μg/mL; as a negative control sample, water was used.
Samples in aqueous solution were used as such or diluted with water.
A 0.1 ml sample (or calibration standard) was mixed with 3.9 ml solution of DPPH° (100 μMolar) and reacted while protected from light at room temperature for 30 min. Absorbance was determined at 517 nm against ethanol.
10 mM of amino acid and/or 10 mM sugar were dissolved in 10 ml 0.1 mM KH2PO4-buffer, pH=7.8.
The samples were kept at 100° C. in sealed glass vials (Pyrex 15 ml with screw caps) for 0 (before reaction), 2.5 or 5.0 hours. Thereafter the samples were transferred to an ice water bath and cooled down to room temperature. These samples were diluted 1:10 and used for the test assay for anti-oxidant potential. […]
0.2 ml sample (or calibration standard) solution was mixed with 0.2 ml solution of DPPH° (0.1 mM) and 3.6 ml methanol. […] After 3 minutes the absorbance at 517 nm was obtained against ethanol. Quantification was performed by linear regression of calibration test results for ascorbic acid. […]

[2] = Assay to test reducing power (iron-III reduction test for anti-oxidant potential); type: physicochemical; conditions: combinations of amino acids and Reb-A, 100° C., 0, 2.5 or 5.0 hours, diluted 1:10
Protocol: Assay to Test Reducing Power
0.2 M Sodium phosphate buffer, pH=6.6; 500 mg Potassium ferric(III)cyanide/50 mL water, 10% Trichloroacetic acid; 20 mg Iron-III-Chloride/20 mL water; Calibration samples were prepared with Ascorbic acid in a concentration of 0-100 μg/mL 0.2 M Sodium phosphate buffer, pH=6.6 (freshly prepared); as negative control sample water was used.
Samples in aqueous solution were used as such or diluted in 0.2 M Sodium phosphate buffer, pH=6.6.
A 1 mL sample (or calibration standard) was mixed with 1 mL 0.2 M Sodium phosphate buffer, pH=6.6 and 1 mL Potassium ferricyanide solution. The sample was incubated and protected from light at 50° C. for 20 min.
To the solution was added 1 mL Trichloroacetic acid with thorough mixing.
A 1 mL of the mixture was diluted with 1 mL H2O and 0.2 mL Iron-Ill-chloride and reacted for 10 minutes; The absorbance was then determined at 700 nm against H2O.
10 mM of amino acid and/or 10 mM sugar were dissolved in 10 ml 0.1 mM KH2PO4-buffer, pH=7.8. […]
1 ml sample (or calibration standard) solution) was mixed with 0.2 M Sodium phosphate buffer (pH=6.6) and 1 ml Potassium ferric(III)cyanide solution in water (1% w/v) and incubated at 50° C. for 20 minutes. […] The sample was incubated for 10 minutes and absorbance read at 700 nm against a water control. […]
Quantification was performed by linear regression of calibration test results for ascorbic acid. […]

[3] = Degree of kokumi with thickeners carrageenan, gellan gum, Tamarind gum (Examples 168-170); set-up: species or system people; conditions: in vivo
Protocol: Carrageenan was added to pure water to prepare several carrageenan solutions with a concentration gradient as standard solutions for judging the degree of kokumi of the carrageenan solutions. […] Method: For evaluation of the degree of kokumi, the sample solutions (described above) were tested by a panel of four people. […] The tester was allowed to re-taste, and then made judgment. […] Gellan gum was added to pure water to prepare several gellan gum solutions with a concentration gradient as standard solutions for judging the degree of kokumi of the gellan gum solutions. […] Method: For evaluation of the degree of kokumi, the sample solutions (described above) were tested by a panel of four people. […] The tester was allowed to re-taste, and then made judgment. […] Tamarind gum was added to pure water to prepare several Tamarind gum solutions with a concentration gradient as standard solutions for judging the degree of kokumi of the Tamarind gum solutions. […] Method: For evaluation of the degree of kokumi, the sample solutions (described above) were tested by a panel of four people. […] The tester was allowed to re-taste, and then made judgment.

[4] = Stevia-derived MRPs with NHDC and Thaumatin in Red Bull sugarfree (Example 240); type: in vivo; conditions: 150 μl of sample in 100 ml Redbull sugar free
Protocol: Stevia-derived MRPs (Reference): 0.67 g xylose, 0.33 g phenylalanine and 4 g Stevia extract TSG95 were dissolved in 2.5 g deionized water. The solution was heated at about 100° C. for 2 h. After the reaction was complete, the slurry was diluted with 25 g water.
(§1) Stevia-derived MRPs by Combination of GSGs and SGs: 0.67 g xylose, 0.33 g phenylalanine, 4 g SGA (Combination of GSGs and SGs) were dissolved in 2.5 g deionized water. The solution was heated at about 100° C. for 2 h. After the reaction was complete, the slurry was diluted with 25 g water.
as §1, with “SGs and NHDC:” for “SGs:”, “SGs) and 3 ppm (=82.5 μg) NHDC” for “SGs)”, “in” for “in 2.5 g deionized”
as §1, with “by SGA (Combination” for “by Combination”, “and SGs), NHDC and Thaumatin:” for “and SGs:”, “and SGs), 3 ppm (=82.5 μg) NHDC and 5 ppm (=302.5 μg EPCalin 45%) Thaumatin” for “and SGs)”
150 μl of the each sample was added to 100 ml Redbull sugar free and mixed. The taste profiles of the samples were compared. […]

[5] = Sensory evaluation of combinations of NHDC, EPCalin (Thaumatin) and Combination of GSGs and SGs in water (Example 234); type: in vivo; conditions: 4.5 ppm Thaumatin and/or 50 ppm GSGs and SGs
Protocol: 4.5 ppm Thaumatin (equivalent to 10 ppm EPCalin) were dissolved in water. Increasing amounts of NHDC (1-5 ppm) were added to the solution and the sensory properties were evaluated.
50 ppm (GSGs and SGs) were dissolved in water. Increasing amounts of NHDC (1-5 ppm) were added to the solution and the sensory properties were evaluated.
50 ppm (GSGs and SGs) and 4.5 ppm Thaumatin (equivalent to 10 ppm EPCalin) were dissolved in water. Increasing amounts of NHDC (1-5 ppm) were added to the solution and the sensory properties were evaluated.
Sweetness intensity was rated on 5-point scale

[6] = Kinetics of reaction in dependence of pH-conditions: degradation of Phe and Reb-A, Gluc, Xyl, Suc (HPLC/MS); conditions: KH2PO4 Buffer, 1.0 h, 120° C.; for % formation from degraded Phe: reaction of Phe and Suc, n.d. = not detected; for Degradation: reaction of Phe and Gluc
Protocol: All samples were analyzed by HPLC/MS using following conditions.
The mobile phase consisted of (A) 0.1% HCOOH (v/v) and (B) AcCN. A gradient of 5% (B) to 15% (B) was applied between 0 min to 15 min. Between 15 and 20 min (B) was increased to 45% which was kept for 5 min. Detection consisted of UV/VIS-DAD (205 nm, 254 nm, 450 nm) coupled to ESI-MS (pos mode, 300° C., TIC from m/z 120-1200, fragmentor 100).
Quantitative Evaluation was Performed Using External Standardization.

C=C1C[C@@]23CC[C@H]4[C@@](C)(CCC[C@@]4(C)C(=O)O[C@@H]4O[C@H](CO)[C@@H](O)[C@H](O)[C@H]4O)[C@@H]2CC[C@]1(O[C@@H]1O[C@H](CO)[C@@H](O)[C@H](O[C@@H]2O[C@H](CO)[C@@H](O)[C@H](O)[C@H]2O)[C@H]1O[C@@H]1O[C@H](CO)[C@@H](O)[C@H](O)[C@H]1O)C3 [Reb-A, Rebaudioside A]
anti-oxidant properties (radical scavenging) [1]: substantial anti-oxidant properties | anti-oxidant properties (active iron-III reduction) [2]: substantial anti-oxidant properties

Tamarind gum
concentration above which taste like starch paste can be clearly felt [3]: exceeds 1400 ppm

gellan gum
concentration above which taste like starch paste can be clearly felt [3]: exceeds 1400 ppm

COc1ccc(CCC(=O)c2c(O)cc(O[C@@H]3O[C@H](CO)[C@@H](O)[C@H](O)[C@H]3O[C@@H]3O[C@@H](C)[C@H](O)[C@@H](O)[C@H]3O)cc2O)cc1O [NHDC, Neohesperidin dihydrochalcone]
taste profile in sugarfree beverage [4]: improved the mouth-feel and harmony of taste impression yielding a substantially improved taste profile | sensory properties (sweetness, onset, lingering, mouth-feel) [5]: long lasting lingering; also recorded: boosts the lingering

carrageenan
concentration above which taste like starch paste can be clearly felt [3]: exceeds 1000 ppm

O=C(O)[C@H](Cc1ccccc1)NCC(=O)[C@@H](O)[C@H](O)[C@H](O)CO [MRI (Phe-Glu)]
% formation from degraded Phe ([6]; pH = 5.5): <0.10% | % formation from degraded Phe ([6]; pH = 7.0): 0.54% | % formation from degraded Phe ([6]; pH = 8.5): 0.84%

NC(Cc1ccccc1)C(=O)O (single isomer, unassigned) [Phe]
Degradation ([6]; pH = 5.5): 2.26 | Degradation ([6]; pH = 7.0): 2.18 | Degradation ([6]; pH = 8.5): 4.24

OC[C@H]1OC(O)[C@H](O)[C@@H](O)[C@@H]1O (stereo partly shown) [Glu]
Degradation ([6]; pH = 5.5): 3.65 | Degradation ([6]; pH = 7.0): 4.6 | Degradation ([6]; pH = 8.5): 7.62
